Source: the NIST ThermoML archive (doi:10.1016/j.jct.2013.03.003)
± gives the expanded uncertainty stated by the source.

Assay: osmotic coefficient (dimensionless); mn = molality of the nth substance listed, in mol/kg
Conditions: 298.15 K, Liquid, isopiestic method

In the case of `[Br-].[K+]` [potassium bromide] + O, the osmotic coefficient (m1 = 2.545) is reported as 0.9434 ± 0.0029, the osmotic coefficient (m1 = 2.703) is reported as 0.9473 ± 0.0027 and the osmotic coefficient (m1 = 2.947) is reported as 0.9544 ± 0.0023. The osmotic coefficient (m1 = 3.171) was 0.9579 ± 0.0021, the osmotic coefficient (m1 = 3.46) was 0.965 ± 0.0019 and the osmotic coefficient (m1 = 3.778) was 0.9757 ± 0.0015. The osmotic coefficient (m1 = 4.026) was 0.9849 ± 0.0011, the osmotic coefficient (m1 = 4.214) was 0.9911 ± 0.0009 and the osmotic coefficient (m1 = 4.694) was 1.0054 ± 0.001. For the same compound, the osmotic coefficient (m1 = 5.41) was 1.032 ± 0.002.
